Experimental findings from PMC8998978, “Toward a Treatment of Cancer: Design and In Vitro/In Vivo Evaluation of Uncharged Pyrazoline Derivatives as a Series of Novel SHP2 Inhibitors” (International Journal of Molecular Sciences, 2022) are described below.

Each structure is given as a SMILES string.

In series [1] the test system is NCM460 cells. The experiment in a line: Cell viability assay (SRB), normal cells. In kind it is cell-based. Particulars: Homo sapiens, 72 h. From the text:
(§1) Human colon cancer cell line HCT116, hepatoma cell lines HepG2 and BEL-7402, lung adenocarcinoma cell lines NCI-H1975 and 95-D, pancreatic cancer cell line Panc-1, breast cancer cell line MDA-MB-231, NSCLC cell line NCI-H1299, ovarian cancer cell line SK-OV-3, leukemia cell line K562, glioma cell line U87, colon epithelial cell line NCM460 and umbilical vein endothelial cell line HUVEC were purchased from the Institute of Biochemistry and Cell Biology, Chinese Academy of Sciences (Shanghai, China). HCT116 cell line was cultured in McCoy’s 5A medium (Hyclone, Logan, UT, USA). HepG2, 95-D, Panc-1, MDA-MB-231, BEL-7402, SK-OV-3, U87 and NCM460 cell lines were cultured in DMEM-High glucose medium (Hyclone, Logan, UT, USA). NCI-H1975, NCI-H1299 and HUVEC cell lines were cultured in RPMI 1640 medium (Hyclone, Logan, UT, USA). K562 cell line was cultured in IMDM medium (Hyclone, Logan, UT, USA). […]
(§2) The inhibition rate of cell viability was detected by 3-(4,5-dimethyl-2-thiazolyl)-2,5-diphenyl-2-H-tetrazolium bromide (MTT, Solarbio, Beijing, China) or Sulforhodamine B (SRB, Sigma-Aldrich, St. Louis, MO, USA) assay. […] The absorbance at 570 nm was measured in a multimode reader (Berthold Technologies, Germany). […] Finally, Tris–HCl solution was added, and the absorbance at 515 nm was detected in a multimode reader (Berthold Technologies, Germany).

Series [2] concerns HUVEC cells. The experiment in a line: Cell viability assay (SRB), normal cells. It counts as cell-based. Particulars: Homo sapiens, 72 h.
Description: as §1, §2

The test system of series [3] is HCT116 cells xenograft. The experiment in a line: Anti-tumor activity in vivo, HCT116 xenograft model. Further details: species or system BALB/c-nude mice. The method, then: Male BALB/c-nude mice (Jinan Pengyue Experimental Animal Breeding Co., Ltd., Jinan, China), 5 weeks of age, were used. The mice were housed in a specific pathogen-free room with temperature controlled (22 ± 2 °C), humidity (55 ± 10%) and a light/dark cycle of 12 h, providing sterile food and water. The HCT116 cells xenograft model was conducted, and 1 × 10^7 HCT116 cells were subcutaneously injected into the right armpit of mice. The tumor volume of mice was measured every three days to evaluate the tumor growth. When the tumor volume reached about 100 mm^3, the mice were randomly divided into four groups (n = 6), and treated with vehicle (0.5% CMC-Na solution) or 4o (25, 50 mg/kg) by gavage once a day for 13 consecutive days. A total of 25 mg/kg 5-FU was used as a positive control. The body weight of mice was measured every three days. The length (L) and width (W) of tumors were measured by electronic caliper every three days. The volume (V) was calculated as follows: V = (L × W^2)/2. When the tumor volume reached about 1000 mm^3, the tumors were excised. Immunohistochemical analysis were used to evaluate the related protein levels.

For series [4], the target named is T1, recombinant human SHP2 protein (Homo sapiens, UniProt Q06124).
T1 sequence (Q06124 1-593): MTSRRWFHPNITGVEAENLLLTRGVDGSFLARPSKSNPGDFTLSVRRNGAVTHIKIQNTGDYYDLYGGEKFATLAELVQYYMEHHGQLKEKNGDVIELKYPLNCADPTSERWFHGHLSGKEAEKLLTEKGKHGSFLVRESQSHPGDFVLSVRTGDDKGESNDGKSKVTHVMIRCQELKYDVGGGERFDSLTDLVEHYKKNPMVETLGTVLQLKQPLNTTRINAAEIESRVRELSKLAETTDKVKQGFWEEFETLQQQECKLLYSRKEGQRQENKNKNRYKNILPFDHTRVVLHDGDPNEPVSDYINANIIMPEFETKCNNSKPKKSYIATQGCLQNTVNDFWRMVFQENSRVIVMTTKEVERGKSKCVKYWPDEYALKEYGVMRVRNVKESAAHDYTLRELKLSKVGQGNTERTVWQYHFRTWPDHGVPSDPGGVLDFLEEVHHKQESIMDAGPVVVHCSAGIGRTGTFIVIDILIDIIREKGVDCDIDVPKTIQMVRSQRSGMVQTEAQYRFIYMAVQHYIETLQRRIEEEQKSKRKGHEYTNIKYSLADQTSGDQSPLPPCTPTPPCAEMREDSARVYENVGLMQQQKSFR
The experiment in a line: SHP2 inhibition assay (pNPP substrate). In kind it is biochemical. Particulars: pNPP 4 mM, SHP2 240 nM, 37 °C, 30 min; means ± SD. How it is done:
pGEX-4T1 SHP2 WT (plasmid #8322) was purchased from Addgene. […] Then, 0.2 mM IPTG (Sangon Biotech, Shanghai, China) was added to induce the expression of protein at 30 °C for 4 h followed by centrifugation and cells collection. Cells were then broken by ultrasound in lysis buffer (20 mM Tris–HCl (pH 8.0), 100 mM KCl, 10% glycerol, 1 mM DTT, 0.5% Triton X-100) on ice. The supernatant was collected by centrifugation at 10,000× g for 15 min at 4 °C. The BeaverBeads GSH (Beaver Biosciences Inc., Guangzhou, China) washed by lysis buffer were incubated with the supernatant for 2 h at 4 °C. […] Then, the experiment was performed in a final volume of 100 μL containing 10 mM Tris–HCl (pH 7.5), 25 mM NaCl, 1 mM EDTA and 4 mM pNPP in a 96-well plate at 37 °C for 30 min. The amount of product p-nitrophenol was determined by the absorbance at 405 nm in a multimode reader (Berthold Technologies GmbH & Co.KG, Bad Wildbad, Baden Württemberg, Germany). The IC50 value was calculated by GraphPad Prism 7.0 software (GraphPad Inc, San Diego, CA, USA).

Consider `CCOc1ccc(Oc2ccc(C3=NN(C4=NC(=O)CS4)C(c4cc(O)c(O)c(Br)c4Br)C3)cc2)cc1` (centres unmarked) [Compound 4o, 2-(5-(2,3-dibromo-4,5-dihydroxyphenyl)-3-(4-(4-ethoxyphenoxy)phenyl)-4,5-dihydro-1H-pyrazol-1-yl)thiazol-4(5H)-one], for which the results for the IC50 in series [1], in series [2] and in series [4] were 27.1 ± 0.66 µM, 28.3 ± 1.63 µM and 1.56 ± 0.25 µM, respectively. Besides, the Tumor inhibition rate in series [3] (4o 25 mg/kg by gavage once daily, 13 days) was 58.8%; in series [3] (4o 50 mg/kg by gavage once daily, 13 days), 67.2%. In series [3] (4o 25, 50 mg/kg or 5-FU 25 mg/kg, 13 days), the “Effect on body weight of tumor-bearing mice” value was “did not have any obvious effect on the body weight”. Also, the “Expression of Ki67 and p-Erk in tumors (immunohistochemistry)” value in series [3] (4o 25, 50 mg/kg, 13 days) is on record as “significantly decreased”. Moreover, the Tumor weight entry in series [3] (4o 25, 50 mg/kg, after 13 days, versus vehicle) is “much lighter”.
